# Experimental data as given in patent US20240350643A1, “PROTEIN DEGRADATION AGENT” (SUZHOU KINTOR PHARMACEUTICALS, INC., priority 2021, published 2024).
# Where two headings read alike, the source gives them in different places.
# Key:
# c-Myc protein = target: T1, c-Myc protein (Homo sapiens, UniProt P01106); assay: Ability of compounds to degrade c-Myc protein in HL60 cells (ELISA); assay type: cell-based; conditions: HL-60, 1 μM compound, 24 h, read-out: HL60 cells Protein degradation rate (1 μM)
# T1 construct: endogenous in cells; host or cells: HL60 cells
# Description: I Activity test 1: Ability of compounds to degrade c-Myc protein in HL60 cells:
# HL60 cells in the exponential growth phase were centrifuged, diluted with fresh culture mediums to 6×10^4 cells/100 μL and plated into a 96-well plate at 100 μL per well.
# Preparation of test compounds: the compounds were weighed and diluted with DMSO to a 10 mM stock solution for later use. According to test requirements, drugs were diluted with cell culture mediums, with ten-fold dilutions starting from 10 μM, to achieve 3 concentration gradients: 10 μM, 1 μM and 100 NM; and finally, 1 μL of the drugs (DMSO content: 0.01%) were added to each well. For the blank control group, DMSO was also diluted with cell culture mediums, and finally, 1 μL of the control reagent (DMSO content: 0.01%) was added to each well.
# 3. Effect of drugs on c-Myc in cells as determined by ELISA
# After 24 h of drug action, the culture mediums were removed, and the cells were washed once with ice-cold 1× PBS. PBS was removed, and 100 μL of ice-cold 1× Cell Lysis Buffer plus 1 mM phenylmethylsulfonyl fluoride (PMSF) was added to each well. The plate was incubated on ice for 20 min and centrifuged at 4000 RPM at 4° C. for 10 min for later use.
# 4. Reagent and antibody preparation in ELISA kit 1× wash buffer • 1). 16 mL of ELISA wash buffer concentrate (25×) was diluted with 384 mL of deionized water or distilled water, labeled as 1× Wash Buffer. • 2). The concentrate and 1× Wash Buffer were stored in the refrigerator. The diluted buffer was used within 14 days.
# The cell extraction buffer contains 10 mM Tris (pH 7.4), 100 mM NaCl, 1 mM EDTA, 1 mM EGTA, 1 mM NaF, 20 mM Na4P2O7 2 mM Na3VO4. 1% Triton™ ×-100, 10% glycerol, 0.1% SDS and 0.5% deoxycholate. Immediately before use, PMSF (0.3 M stock solution in DMSO) was added to the buffer to a final concentration of 1 mM.
# Standard curve configuration: The standard liquid was diluted using glass or plastic tubes. • 1). Huc-Myc (total) standard liquid (Invitrogen, KH02041) was reconstituted with a standard dilution to 1000 pg/mL. Refer to the standard vial label for instructions. The contents were gently swirled or mixed and then allowed to stand for 10 minutes to ensure complete reconstitution, labeled as 1,000 pg/mL human c-Myc. The standard liquid was used within 1 hour after reconstitution. • 2). 250 μL of standard dilution buffers were added to 7 test tubes respectively labeled 500, 250, 125, 62.5, 31.25, 15,63 and 0 pg/mL. • 3). 250 μL of the 1000 pg/ml standard stock solution was added to the first EP tube to a concentration of 500 pg/mL, vortexed and mixed evenly. 250 μL of the resulting mixture was further pipetted and added to the second EP tube to a concentration of 250 pg/mL. Serial dilutions were performed until the sixth EP tube with a concentration of 15.63 pg/mL. Dilution was not performed on the last EP tube. • 4). The remaining reconstituted standard liquid should be discarded, or aliquoted and frozen at −80° C. for further use. Standards can be frozen and thawed only once without losing immunoreactivity.
# 1× anti-rabbit IgG HRP solution: 1× anti-rabbit IgG HRP solution was prepared within 15 minutes of use. The anti-rabbit IgG HRP (100×) contained 50% viscous glycerol. To ensure accurate dilutions, the following operations were carried out: 1 For each 8-well test strip used in the test, 10 μl, of the anti-rabbit IgG -IRP (100×) solution was pipetted, wherein the pipette tip was wiped with clean absorbent paper to remove excess solutions, and then the solution was dispensed into a test tube containing 1 mL of HRP diluent and mixed thoroughly. 2. The unused anti-rabbit IgG HRP (100×) was placed in the refrigerator for storage.
# 50 μL of the standard liquid was added to the appropriate wells and not added to the blank control well. Except for the blank control well, 50 μL of Hu c-Myc (total) detection antibody solution was added to each well and mixed by tapping the side face of the plate. […]
# HL60 cells = assay: Anti-proliferation ability of compounds on HL60 cells (CTG); assay type: cell-based, human; conditions: 3 days, CellTiter-Glo, read-out: HL60 cells Proliferation inhibitory activity
# Description: II. Activity test 2: Anti-proliferation ability of compounds on HL60 cells: 1 Cell plating
# HL60 cells in the logarithmic growth phase were counted and plated evenly in a 96-well transparent bottom white plate at 20000 cells per well and 100 μL per well.
# A certain amount of the compounds was weighed and diluted with DMSO to a 10 mM stock solution. The culture mediums corresponding to the cells were taken, and the drugs were diluted to the concentration required by the test, shaken gently and mixed evenly. 50 μl of the gradient dilution of the diluted compound was added to each well of the plated cells, and 50 μL of 0.1% DMSO was added to the control group. The plate was shaken gently, mixed evenly and incubated in a cell culture incubator for 3 days.
# • 3.1 The CellTiter-GLo™ (CTG) reagent was taken in advance from the −20° C. refrigerator and equilibrated to room temperature in the dark (white bottle+brown bottle, 1:1 mixing evenly into the brown bottle, for later use). • 3.2 The 96-well plate was taken out and inspected under a microscope for growth situation. • 3.3 The bottom of the 96-well plate was tagged with white paper, and then the plate was wrapped with tin foil paper, shaken at 37° C. at 300 r for 10 min and mixed evenly. • 3.4 50 ul of CTG detection reagent was added to each well, Luminescence signal was detected using a microplate reader, and the inhibition rate was calculated. IC50 values of the compounds were calculated by XLfit software to evaluate the proliferation inhibitory activity on HL60 cells.
# T1 sequence (P01106 whole entry): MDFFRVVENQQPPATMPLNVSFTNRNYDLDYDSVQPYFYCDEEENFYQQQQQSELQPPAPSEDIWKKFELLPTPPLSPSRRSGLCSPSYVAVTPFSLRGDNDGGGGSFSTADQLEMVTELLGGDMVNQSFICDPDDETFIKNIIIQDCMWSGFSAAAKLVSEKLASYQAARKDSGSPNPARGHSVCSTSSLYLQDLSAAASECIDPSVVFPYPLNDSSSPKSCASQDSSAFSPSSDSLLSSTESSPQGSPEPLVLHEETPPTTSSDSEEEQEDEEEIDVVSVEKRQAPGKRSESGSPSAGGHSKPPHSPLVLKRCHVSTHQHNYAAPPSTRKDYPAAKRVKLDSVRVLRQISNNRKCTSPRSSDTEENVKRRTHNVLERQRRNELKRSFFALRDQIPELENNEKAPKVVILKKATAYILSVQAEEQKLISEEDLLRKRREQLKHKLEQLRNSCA
SMILES,inhibition at 1 µM (c-Myc protein) [%],"IC50 (HL60 cells; Homo sapiens, HL-60, 72 h) [nM]",IC50 (HL60 cells) [nM]
O=C(Cn1c2ccccc2c2cccnc21)NCc1cnc(CNC(=O)c2ccc3c(c2)C(=O)N(C2CCC(=O)NC2=O)C3=O)s1 (centres unmarked) [A134],60 to 90,334 ± 83.5,–
CN(CCc1cccc2ccccc12)Cc1ccc(C(C)(C)NC(=O)c2ccc3c(c2)C(=O)N(C2CCC(=O)NC2=O)C3=O)cc1 (centres unmarked) [A147],60 to 90,16.7 ± 9.5,–
O=C(Cn1c2ccccc2c2cccnc21)NCc1ccc(CNCc2ccc3c(c2)C(=O)N(C2CCC(=O)NC2=O)C3=O)cc1 (centres unmarked) [A176],60 to 90,2.1 ± 0.6,–
CN(CCc1cccc(Cl)c1Cl)Cc1ccc(CNC(=O)c2ccc3c(c2)C(=O)N(C2CCC(=O)NC2=O)C3=O)cc1 (centres unmarked) [A99],60 to 90,19.8 ± 4.8,–
O=C(Cc1cccc(Cl)c1)NCc1ccc(CNC(=O)c2ccc3c(c2)C(=O)N(C2CCC(=O)NC2=O)C3=O)cc1 (centres unmarked) [A58],60 to 90,285 ± 10.7,–
O=C(Cn1c2ccccc2c2ccccc21)NC[C@H]1CC[C@H](CNC(=O)c2ccc3c(c2)C(=O)N(C2CCC(=O)NC2=O)C3=O)CC1 (some centres unmarked) [A23],30 to 60,55.4 ± 6.7,–
O=C(Cn1c2ccccc2c2cccnc21)NCc1ccc(CNC(=O)c2ccc3c(c2)CN([C@H]2CCC(=O)NC2=O)C3=O)cc1 [A224],60 to 90,1.7 ± 1.3,–
COc1ccccc1CC(=O)NCc1ccc(CNC(=O)c2ccc3c(c2)C(=O)N(C2CCC(=O)NC2=O)C3=O)cc1 (centres unmarked) [A54],60 to 90,2330 ± 518,–
O=C(Cn1c2ccccc2c2cccnc21)NCc1ccc(COCc2ccc3c(c2)C(=O)N(C2CCC(=O)NC2=O)C3=O)cc1 (centres unmarked) [A192],60 to 90,7.7 ± 2.1,–
N#Cc1ccccc1CC(=O)NCc1ccc(CNC(=O)c2ccc3c(c2)C(=O)N(C2CCC(=O)NC2=O)C3=O)cc1 (centres unmarked) [A66],60 to 90,1850 ± 1230,–
O=C(Cn1c2ccccc2c2cccnc21)NCc1ccc(CNC(=O)c2ccc3c(c2)CN(C2CCC(=O)NC2=O)C3=O)c(OC(F)(F)F)c1 (centres unmarked) [A207],–,0.2,–
CC(=O)N(CCc1cccc2ccccc12)Cc1ccc(CNC(=O)c2ccc3c(c2)C(=O)N(C2CCC(=O)NC2=O)C3=O)cc1 (centres unmarked) [A79],60 to 90,21.7,–
O=C(Cn1c2ccccc2c2cccnc21)NCCCCCCCCOc1ccc2c(c1)C(=O)N(C1CCC(=O)NC1=O)C2=O (centres unmarked) [A18],30 to 60,1220 ± 217,–
CN(CCn1c2ccccc2c2cccnc21)Cc1ccc(CC(=O)Nc2ccc3c(c2)CN(C2CCC(=O)NC2=O)C3=O)cc1 (centres unmarked) [A206],–,0.5 ± 0.2,–
O=C1CCC(N2Cc3cc(C(=O)NC[C@H]4CC[C@H](NC(=O)NCc5cccc6ccccc56)CC4)ccc3C2=O)C(=O)N1 (some centres unmarked) [A198],–,17.8 ± 1.9,–
N#Cc1cc(CNC(=O)Cn2c3ccccc3c3cccnc32)ccc1CNC(=O)c1ccc2c(c1)CN(C1CCC(=O)NC1=O)C2=O (centres unmarked) [A210],–,3.6 ± 1.8,–
O=C(Cn1c2ccccc2c2cccnc21)NCc1ccc(CNC(=O)c2cc3c(cc2F)C(=O)N(C2CCC(=O)NC2=O)C3)cc1 (centres unmarked) [A222],–,0.6 ± 0.2,–
O=C(Cn1c2ccccc2c2cccnc21)NCc1ccc(C2(NC(=O)c3ccc4c(c3)CN(C3CCC(=O)NC3=O)C4=O)CC2)cn1 (centres unmarked) [A215],–,186 ± 67,–
O=C(Cn1c2ccccc2c2cccnc21)NCc1ccc(CC(=O)Nc2cc3c(cc2F)C(=O)N(C2CCC(=O)NC2=O)C3)c(C(F)(F)F)c1 (centres unmarked) [A219],–,7.8 ± 2,–

SMILES,inhibition at 1 µM (c-Myc protein) [%],"IC50 (HL60 cells; Homo sapiens, HL-60, 72 h) [nM]",IC50 (HL60 cells) [nM]
O=C1CCC(N2Cc3cc(C(=O)NCc4ccc(CN(CCO)CCc5ccc(Cl)c(Cl)c5)cc4)ccc3C2=O)C(=O)N1 (centres unmarked) [A233],–,< 3.04,–
CC(C)(C)C(=O)OCN1C(=O)CCC(N2Cc3cc(C(=O)NCc4ccc(CNC(=O)Cn5c6ccccc6c6cccnc65)cc4)ccc3C2=O)C1=O (centres unmarked) [A226],–,1,–
O=C1CCC(N2Cc3cc(C(=O)NCc4ccc(CN(CCc5cccc6ccccc56)CCc5cccc6ccccc56)cc4)ccc3C2=O)C(=O)N1 (centres unmarked) [A230],–,11.8 ± 1.2,–
O=C1CCC(N2Cc3cc(C(=O)NCc4ccc(C5(NC(=O)Cn6c7ccccc7c7cccnc76)CC5)cn4)ccc3C2=O)C(=O)N1 (centres unmarked) [A214],–,5.2 ± 1.4,–
Cc1cc(CNC(=O)Cn2c3ccccc3c3cccnc32)ccc1CNC(=O)c1ccc2c(c1)CN(C1CCC(=O)NC1=O)C2=O (centres unmarked) [A217],–,0.6,–
O=C(CN1CCCc2cccnc21)NCc1ccc(CNC(=O)c2ccc3c(c2)CN(C2CCC(=O)NC2=O)C3=O)cc1 (centres unmarked) [A202],–,6.4 ± 2.7,–
N#Cc1cc(CNC(=O)Cn2c3ccccc3c3cccnc32)ccc1CC(=O)Nc1ccc2c(c1)CN(C1CCC(=O)NC1=O)C2=O (centres unmarked) [A211],–,13.3 ± 1,–
O=C1CCC(N2Cc3cc(C(=O)NCc4ccc(CN(CCc5cccc6ccccc56)C(=O)CO)cc4)ccc3C2=O)C(=O)N1 (centres unmarked) [A232],–,0.54,–
O=C(Cn1c2ccccc2c2cccnc21)NCc1ccc(CC(=O)Nc2ccc3c(c2F)CN(C2CCC(=O)NC2=O)C3=O)c(C(F)(F)F)c1 (centres unmarked) [A218],–,3.3 ± 0.8,–
O=C1CCC(N2Cc3cc(C(=O)NCc4ccc(C5(NC(=O)Cn6c7ccccc7c7cccnc76)CC5)cc4)ccc3C2=O)C(=O)N1 (centres unmarked) [A212],–,1.5 ± 0.1,–
N#Cc1cccc2c3ccccc3n(CC(=O)NCc3ccc(CNC(=O)c4ccc5c(c4)CN(C4CCC(=O)NC4=O)C5=O)cc3)c12 (centres unmarked) [A229],–,< 3.04,–
O=C1CCC(N2Cc3cc(C(=O)NCc4ccc(CN(CCO)CCc5cccc6ccccc56)cc4)ccc3C2=O)C(=O)N1 (centres unmarked) [A234],–,0.71 ± 0.04,–
O=C(Cn1c2ccccc2c2ccncc21)NCCCCCCNC(=O)c1ccc2c(c1)C(=O)N(C1CCC(=O)NC1=O)C2=O (centres unmarked) [A3],30 to 60,–,–
O=C(Cn1c2ccccc2c2cccnc21)NCc1ccc(CNC(=O)c2ccc3c(c2F)CN(C2CCC(=O)NC2=O)C3=O)cc1 (centres unmarked) [A223],–,0.7 ± 0.4,–
O=C(Cn1c2ccccc2c2cccc(CO)c21)NCc1ccc(CNC(=O)c2ccc3c(c2)C(=O)N(C2CCC(=O)NC2=O)C3=O)cc1 (centres unmarked) [A236],–,6.3 ± 1.2,–
O=C(Cn1c2ccccc2c2cccnc21)NCc1ccc(C2(NC(=O)c3ccc4c(c3)CN(C3CCC(=O)NC3=O)C4=O)CC2)cc1F (centres unmarked) [A216],–,3.5 ± 1.1,–
O=C1CCC(N2Cc3cc(C(=O)NCc4ccc(CNCCc5cccc6ccccc56)cc4)ccc3C2=O)C(=O)N1 (centres unmarked) [A231],–,< 3.04,–
O=C(Cn1c2ccccc2c2cccnc21)NCc1ccc(C2(NC(=O)c3ccc4c(c3)CN(C3CCC(=O)NC3=O)C4=O)CC2)cc1 (centres unmarked) [A213],–,5.4 ± 1.9,–
O=C(Cn1c2ccccc2c2cccnc21)NCc1ccc(CNC(=O)c2ccc3c(c2)CN(C2CCC(=O)NC2=O)C3=O)c(C(F)(F)F)c1 (centres unmarked) [A209],–,–,0.9
